Assay results from PubChem BioAssay AID2060497 (Molecular Pharmacology Branch, DTP, NCI, 2025).

System: 317291-083-R-J1-PDC complex spheroids, viability
Experiment: Anticancer human tumor 317291-083-R-J1-PDC patient-derived soft tissue sarcoma cell line growth inhibition [GQUAD]
Details: for IC50: curve of first compound; for viability, T/C: stronger effect = lower value; active = viability on the fitted dose curve at most 10% of control; inactive = the rest
In short: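 Multi-cell-type spheroids of tumor cells with HUVEC and mesenchymal stem cells, treated with drug combinations. Concentrations descend in half-log steps from near clinical Cmax, or from 10 microM where Cmax is unknown; viability read-out.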

[1] = second compound 0.0316 µM, first compound 0.0316 µM
[2] = second compound 0.0316 µM, first compound 0.1 µM
[3] = second compound 0.0316 µM, first compound 0.316 µM
[4] = second compound 0.0316 µM, first compound 1 µM
[5] = second compound 0.0316 µM, first compound 3.16 µM
[6] = second compound 0.0316 µM, first compound 10 µM
[7] = second compound 0.1 µM, first compound 0.0316 µM
[8] = second compound 0.1 µM, first compound 0.1 µM
[9] = second compound 0.1 µM, first compound 0.316 µM
[10] = second compound 0.1 µM, first compound 1 µM
[11] = second compound 0.1 µM, first compound 3.16 µM
[12] = second compound 0.1 µM, first compound 10 µM
[13] = second compound 0.316 µM, first compound 0.0316 µM
[14] = second compound 0.316 µM, first compound 0.1 µM
[15] = second compound 0.316 µM, first compound 0.316 µM
[16] = second compound 0.316 µM, first compound 1 µM
[17] = second compound 0.316 µM, first compound 3.16 µM
[18] = second compound 0.316 µM, first compound 10 µM
[19] = second compound 1 µM, first compound 0.0316 µM
[20] = second compound 1 µM, first compound 0.1 µM
[21] = second compound 1 µM, first compound 0.316 µM
[22] = second compound 1 µM, first compound 1 µM
[23] = second compound 1 µM, first compound 3.16 µM
[24] = second compound 1 µM, first compound 10 µM
[25] = second compound 3.16 µM, first compound 0.0316 µM
[26] = second compound 3.16 µM, first compound 0.1 µM
[27] = second compound 3.16 µM, first compound 0.316 µM
[28] = second compound 3.16 µM, first compound 1 µM
[29] = second compound 3.16 µM, first compound 3.16 µM
[30] = second compound 3.16 µM, first compound 10 µM
[31] = second compound 10 µM, first compound 0.0316 µM
[32] = second compound 10 µM, first compound 0.1 µM
[33] = second compound 10 µM, first compound 0.316 µM
[34] = second compound 10 µM, first compound 1 µM
[35] = second compound 10 µM, first compound 3.16 µM
[36] = second compound 10 µM, first compound 10 µM
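Also: spheroids exposed to compounds for one week before readout.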
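For viability, T/C in this document: percent viability relative to DMSO vehicle wells taken as 100%.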

COc1cc(C2c3cc4c(cc3C(OC3OC5COC(C)OC5C(O)C3O)C3COC(=O)C23)OCO4)cc(OC)c1O (centres undefined) + CN(C)c1ccc(Nc2c3ccc(NC(=O)CCN4CCCC4)cc3nc3cc(NC(=O)CCN4CCCC4)ccc23)cc1
0.283 µM: IC50 (second compound 0.316 µM)
inactive: viability, T/C [1] 89.9% | viability, T/C [2] 82.2% | viability, T/C [3] 48.9% | viability, T/C [4] 26.8% | viability, T/C [5] 19.4% | viability, T/C [6] 21.7% | viability, T/C [7] 92.1% | viability, T/C [8] 86% | viability, T/C [9] 50.4% | viability, T/C [10] 29.6% | viability, T/C [11] 15.7% | viability, T/C [12] 18.1% | viability, T/C [13] 79.8% | viability, T/C [14] 71.9% | viability, T/C [15] 46.8% | viability, T/C [16] 26.1% | viability, T/C [17] 20.1% | viability, T/C [18] 12.3% | viability, T/C [19] 62.1% | viability, T/C [20] 37.9% | viability, T/C [21] 20.7% | viability, T/C [22] 15.7% | viability, T/C [23] 13.5% | viability, T/C [25] 39% | viability, T/C [26] 12.5% | viability, T/C [27] 21.5% | viability, T/C [28] 9.89% | viability, T/C [31] 12.7%
0.357 µM: IC50 (second compound 0.1 µM)
0.0554 µM: IC50 (second compound 1 µM)
active: viability, T/C [24] 7.56% | viability, T/C [29] 8.39% | viability, T/C [30] 6.12% | viability, T/C [32] 8.34% | viability, T/C [33] 4.76% | viability, T/C [34] 7.68% | viability, T/C [35] 5.05% | viability, T/C [36] 0.99%
< 0.0316 µM: IC50 (second compound 3.16 µM) | IC50 (second compound 10 µM)
0.31 µM: IC50 (second compound 0.0316 µM)

CC1COCCN1c1cc(-c2ccnn2C)c2ccnc(-c3ccn[nH]3)c2n1 (centres undefined) + Cc1[nH]c2ccc(F)cc2c1-c1nc2c3cccnc3c3ncccc3c2[nH]1
0.0625 µM: IC50 (second compound 1 µM)
0.0751 µM: IC50 (second compound 0.1 µM)
0.0888 µM: IC50 (second compound 0.0316 µM)
0.0654 µM: IC50 (second compound 3.16 µM)
0.0644 µM: IC50 (second compound 0.316 µM)
inactive: viability, T/C [1] 87.9% | viability, T/C [2] 45.6% | viability, T/C [3] 16.4% | viability, T/C [4] 11.7% | viability, T/C [5] 13% | viability, T/C [6] 15.1% | viability, T/C [7] 89.4% | viability, T/C [8] 36.9% | viability, T/C [9] 14.7% | viability, T/C [10] 13.8% | viability, T/C [11] 13.6% | viability, T/C [12] 11.5% | viability, T/C [13] 77.7% | viability, T/C [14] 33% | viability, T/C [15] 13.8% | viability, T/C [16] 14.1% | viability, T/C [17] 11.5% | viability, T/C [18] 14.4% | viability, T/C [19] 76.1% | viability, T/C [20] 31.9% | viability, T/C [21] 18% | viability, T/C [22] 14.8% | viability, T/C [23] 15.3% | viability, T/C [24] 10.1% | viability, T/C [25] 60.7% | viability, T/C [26] 43.7% | viability, T/C [27] 13.3% | viability, T/C [28] 9.76% | viability, T/C [29] 9.63% | viability, T/C [30] 14.1% | viability, T/C [31] 89% | viability, T/C [32] 33.4% | viability, T/C [33] 13.8% | viability, T/C [34] 8.91% | viability, T/C [35] 10% | viability, T/C [36] 12.1%
0.0709 µM: IC50 (second compound 10 µM)
